Values joined by “and” are separate entries in the source; they are usually repeats but may differ in a detail not shown here. Equal entries are not always repeated. Inconclusive results and toxic doses are left out. Rule for the calls: active = survival T/C of 150% or more; inactive = T/C below 125% in these data.
System: CD2F1 mice, L1210 leukemia ip, survival T/C
Experiment: NCI In Vivo Anticancer Drug Screen. Data for tumor model L1210 Leukemia (intraperitoneal) in CD2F1 (CDF1) mice
Conditions: higher = longer survival
Outline: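 Ratio T/C, where T is the treated-group value and C the vehicle-dosed control value, from mice implanted with a transplantable tumor.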

[1] = endpoint: mean survival time, dose: 100.0 mg/kg/injection, schedule: Q01DX009 (ip), vehicle: saline with Tween-80
[2] = endpoint: mean survival time, dose: 100.0 mg/kg/injection, schedule: Q04DX003 (ip), vehicle: saline with Tween-80
[3] = endpoint: mean survival time, dose: 200.0 mg/kg/injection, schedule: Q01DX009 (ip), vehicle: saline with Tween-80
[4] = endpoint: mean survival time, dose: 200.0 mg/kg/injection, schedule: Q04DX003 (ip), vehicle: saline with Tween-80
[5] = endpoint: mean survival time, dose: 400.0 mg/kg/injection, schedule: Q01DX009 (ip), vehicle: saline with Tween-80
[6] = endpoint: mean survival time, dose: 400.0 mg/kg/injection, schedule: Q04DX003 (ip), vehicle: saline with Tween-80
[7] = endpoint: mean survival time, dose: 50.0 mg/kg/injection, schedule: Q01DX009 (ip), vehicle: saline with Tween-80
[8] = endpoint: mean survival time, dose: 100.0 mg/kg/injection, schedule: Q01DX009 (ip), vehicle: saline
[9] = endpoint: mean survival time, dose: 100.0 mg/kg/injection, schedule: Q04DX003 (ip), vehicle: saline
[10] = endpoint: mean survival time, dose: 200.0 mg/kg/injection, schedule: Q01DX009 (ip), vehicle: saline
[11] = endpoint: mean survival time, dose: 200.0 mg/kg/injection, schedule: Q04DX003 (ip), vehicle: saline
[12] = endpoint: mean survival time, dose: 400.0 mg/kg/injection, schedule: Q01DX009 (ip), vehicle: saline
[13] = endpoint: mean survival time, dose: 400.0 mg/kg/injection, schedule: Q04DX003 (ip), vehicle: saline
[14] = endpoint: mean survival time, dose: 25.0 mg/kg/injection, schedule: Q01DX009 (ip), vehicle: saline with Tween-80

Measured: T/C

CC(C)(C)C1CCC(S(=O)c2ccc([N+](=O)[O-])cc2[N+](=O)[O-])CC1 (configuration not stated)
inactive: [1] 90 % of control | [2] 94 % of control | [3] 91 % of control | [4] 98 % of control | [5] 86 % of control | [6] 88 % of control

CN(C)c1ncnc(-c2ccncc2)n1
inactive: endpoint: mean survival time, dose: 100.0 mg/kg/injection, schedule: Q04DX002 (ip), vehicle: saline with Tween-80 88 % of control | endpoint: mean survival time, dose: 200.0 mg/kg/injection, schedule: Q04DX002 (ip), vehicle: saline with Tween-80 100 % of control

C/C(=C\Cl)COC(C)(C)C
inactive: [7] 98 % of control | [1] 93 % of control | endpoint: mean survival time, dose: 100.0 mg/kg/injection, schedule: Q04DX003 (ip), vehicle: acetone 101 % of control | [3] 98 % of control | endpoint: mean survival time, dose: 200.0 mg/kg/injection, schedule: Q04DX003 (ip), vehicle: acetone 93 % of control

CC(NC(=O)C(CSCc1ccccc1)NC(=O)OCc1ccccc1)C(=O)OCc1ccccc1 (configuration not stated)
inactive: [2] 96 % of control | [4] 98 % of control | [6] 93 % of control

CNNCc1c[nH]c(=O)[nH]c1=O
inactive: endpoint: mean survival time, dose: 25.0 mg/kg/injection, schedule: Q01DX009 (ip), vehicle: water 110 % of control | endpoint: mean survival time, dose: 50.0 mg/kg/injection, schedule: Q01DX009 (ip), vehicle: water 102 % of control | endpoint: mean survival time, dose: 100.0 mg/kg/injection, schedule: Q01DX009 (ip), vehicle: water 102 % of control | endpoint: mean survival time, dose: 200.0 mg/kg/injection, schedule: Q01DX009 (ip), vehicle: water 93 % of control | endpoint: mean survival time, dose: 400.0 mg/kg/injection, schedule: Q01DX009 (ip), vehicle: water 100 % of control

COc1cc(C(=O)C[n+]2ccccc2)ccc1O
inactive: [7] 103 % of control | [1] 87 % of control | [3] 96 % of control

C[S+](C)C
inactive: endpoint: mean survival time, dose: 25.0 mg/kg/injection, schedule: Q01DX009 (ip), vehicle: saline 101 % of control | endpoint: mean survival time, dose: 50.0 mg/kg/injection, schedule: Q01DX009 (ip), vehicle: saline 100 % of control | [8] 104 % of control | [9] 101 % of control | [10] 98 % of control | [11] 101 % of control | [12] 102 % of control | [13] 104 % of control

Nc1nc2c(ncn2C2OC(CO)C(O)C2O)c(=O)[nH]1 (configuration not stated)
inactive: [14] 98 % of control and 105 % of control | [7] 101 % of control and 103 % of control | [1] 98 % of control and 102 % of control | [3] 95 % of control and 104 % of control | [5] 101 % of control and 104 % of control | endpoint: mean survival time, dose: 800.0 mg/kg/injection, schedule: Q01DX009 (ip), vehicle: saline with Tween-80 98 % of control and 110 % of control | endpoint: median survival time, dose: 1000.0 mg/kg/injection, schedule: Q01DX009 (ip), vehicle: saline with Tween-80 106 % of control | endpoint: median survival time, dose: 1500.0 mg/kg/injection, schedule: Q01DX009 (ip), vehicle: saline with Tween-80 89 % of control | endpoint: median survival time, dose: 2000.0 mg/kg/injection, schedule: Q01DX009 (ip), vehicle: saline with Tween-80 91 % of control and 108 % of control

CC1(C)OCC(COCc2ccccc2)O1 (configuration not stated)
inactive: [8] 96 % of control | [10] 91 % of control | [12] 96 % of control

CC1=CCCC1
inactive: [9] 98 % of control | [11] 101 % of control | [13] 95 % of control

CNC(=O)OCc1c(COC(=O)NC)c(-c2ccc(Cl)c(Cl)c2)n2c1CCC2
inactive: endpoint: mean survival time, dose: 12.5 mg/kg/injection, schedule: Q01DX009 (ip), vehicle: Klucel (hydroxypropylcellulose) (HPC) 109 % of control | endpoint: mean survival time, dose: 25.0 mg/kg/injection, schedule: Q01DX009 (ip), vehicle: Klucel (hydroxypropylcellulose) (HPC) 110 % of control | endpoint: mean survival time, dose: 50.0 mg/kg/injection, schedule: Q01DX009 (ip), vehicle: Klucel (hydroxypropylcellulose) (HPC) 107 % of control | endpoint: mean survival time, dose: 100.0 mg/kg/injection, schedule: Q01DX009 (ip), vehicle: Klucel (hydroxypropylcellulose) (HPC) 105 % of control

[Cl][Pt][Cl].[NH-]C(CO)C(=O)O (configuration not stated)
inactive: endpoint: mean survival time, dose: 3.13 mg/kg/injection, schedule: Q04DX003 (ip), vehicle: water 106 % of control | endpoint: mean survival time, dose: 6.25 mg/kg/injection, schedule: Q04DX003 (ip), vehicle: water 113 % of control | endpoint: mean survival time, dose: 12.5 mg/kg/injection, schedule: Q04DX003 (ip), vehicle: water 113 % of control | endpoint: mean survival time, dose: 25.0 mg/kg/injection, schedule: Q04DX003 (ip), vehicle: water 118 % of control | endpoint: mean survival time, dose: 50.0 mg/kg/injection, schedule: Q04DX003 (ip), vehicle: water 119 % of control | endpoint: mean survival time, dose: 100.0 mg/kg/injection, schedule: Q04DX003 (ip), vehicle: water 95 % of control | endpoint: median survival time, dose: 6.25 mg/kg/injection, schedule: Q01DX009 (ip), vehicle: water 117 % of control | endpoint: median survival time, dose: 12.5 mg/kg/injection, schedule: Q01DX009 (ip), vehicle: water 117 % of control | endpoint: median survival time, dose: 25.0 mg/kg/injection, schedule: Q01DX009 (ip), vehicle: water 124 % of control

CCOC(=O)NNC(=O)Nc1ccccc1F
inactive: [1] 104 % of control | [3] 88 % of control | [5] 94 % of control

CC1CNC(=S)O1 (configuration not stated)
inactive: [14] 102 % of control | [7] 100 % of control | [1] 97 % of control and 103 % of control | [2] 100 % of control | [3] 97 % of control and 95 % of control | [4] 97 % of control | [5] 97 % of control and 106 % of control | [6] 103 % of control

CC(=O)C(CN(C)C)c1ccccc1 (configuration not stated)
inactive: [9] 95 % of control | [11] 107 % of control

OCCCCCCl
inactive: endpoint: mean survival time, dose: 100.0 mg/kg/injection, schedule: Q01DX001 (ip), vehicle: saline 104 % of control | endpoint: mean survival time, dose: 200.0 mg/kg/injection, schedule: Q01DX001 (ip), vehicle: saline 98 % of control | endpoint: mean survival time, dose: 400.0 mg/kg/injection, schedule: Q01DX001 (ip), vehicle: saline 101 % of control

C[NH-].C[NH-].[Br][Pt+2][Br]
inactive: endpoint: mean survival time, dose: 1.25 mg/kg/injection, schedule: Q04DX003 (ip), vehicle: water 106 % of control | endpoint: mean survival time, dose: 2.5 mg/kg/injection, schedule: Q04DX003 (ip), vehicle: water 108 % of control | endpoint: mean survival time, dose: 5.0 mg/kg/injection, schedule: Q04DX003 (ip), vehicle: water 110 % of control | endpoint: mean survival time, dose: 10.0 mg/kg/injection, schedule: Q04DX003 (ip), vehicle: water 97 % of control

CCOC(=O)CC(=O)c1ccccc1
inactive: [1] 96 % of control | [3] 102 % of control | [5] 89 % of control

COC1(OC)C(Cl)=C(Cl)C(Cl)=C1Cl
inactive: endpoint: mean survival time, dose: 6.25 mg/kg/injection, schedule: Q01DX009 (ip), vehicle: saline with Tween-80 96 % of control | endpoint: mean survival time, dose: 12.5 mg/kg/injection, schedule: Q01DX009 (ip), vehicle: saline with Tween-80 98 % of control | endpoint: mean survival time, dose: 12.5 mg/kg/injection, schedule: Q04DX003 (ip), vehicle: saline with Tween-80 111 % of control | [14] 96 % of control | endpoint: mean survival time, dose: 25.0 mg/kg/injection, schedule: Q04DX003 (ip), vehicle: saline with Tween-80 111 % of control

O=C1C2CCCCC2C(=O)N1c1cccc2cccnc12 (configuration not stated)
inactive: endpoint: mean survival time, dose: 50.0 mg/kg/injection, schedule: Q01DX001 (ip), vehicle: saline with Tween-80 98 % of control | endpoint: mean survival time, dose: 100.0 mg/kg/injection, schedule: Q01DX001 (ip), vehicle: saline with Tween-80 95 % of control | endpoint: mean survival time, dose: 200.0 mg/kg/injection, schedule: Q01DX001 (ip), vehicle: saline with Tween-80 95 % of control

Cc1ccc(NS(=O)(=O)c2ccccc2)c([N+](=O)[O-])c1
inactive: [1] 97 % of control | [2] 105 % of control | [3] 95 % of control | [4] 97 % of control | [5] 100 % of control | [6] 100 % of control
